Source: PubChem BioAssay AID248 (DTP/NCI, 2004)
Inconclusive results and toxic doses are left out. Rule as the data show it: active = T/C of 150% or more; inactive = T/C below 125%. Square brackets hold non-standard residues; d marks the D form. Peptide text beside a SMILES is read from it. * marks the point of attachment. ξ: configuration not given here. Boc = CC(C)(C)OC(=O)*; ξP = O=C(O)C1CCCN1

Tested on: L1210 leukemia ip in BDF1 mice, survival T/C
Test: NCI In Vivo Anticancer Drug Screen. Data for tumor model L1210 Leukemia (intraperitoneal) in B6D2F1 (BDF1) mice
Details: endpoint: mean survival time, higher = longer survival
Procedure, shortened: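 Tumor cells were implanted, animals were treated, and survival was followed. The result divides the treated measurement by the vehicle-control measurement.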

Measured: T/C

COC(=O)C1CCCN1C(=O)CNC(=O)OC(C)(C)C (stereo not drawn) (Boc-Gly-[ξP]-OMe)
inactive: dose: 100.0 mg/kg/injection, schedule: Q01DX001 (ip), vehicle: saline 103 % of control | dose: 200.0 mg/kg/injection, schedule: Q01DX001 (ip), vehicle: saline 97 % of control | dose: 400.0 mg/kg/injection, schedule: Q01DX001 (ip), vehicle: saline 94 % of control

NC(N)=NNC(=O)C(=O)O
inactive: dose: 100.0 mg/kg/injection, schedule: Q04DX003 (ip), vehicle: saline with Tween-80 95 % of control | dose: 200.0 mg/kg/injection, schedule: Q04DX003 (ip), vehicle: saline with Tween-80 91 % of control | dose: 400.0 mg/kg/injection, schedule: Q04DX003 (ip), vehicle: saline with Tween-80 93 % of control

CC/C(=C(\CC)c1ccc(OCCOS(C)(=O)=O)cc1)c1ccc(OCCOS(C)(=O)=O)cc1
inactive: dose: 12.5 mg/kg/injection, schedule: Q04DX002 (ip), vehicle: saline 97 % of control | dose: 25.0 mg/kg/injection, schedule: Q04DX002 (ip), vehicle: saline 101 % of control | dose: 50.0 mg/kg/injection, schedule: Q04DX002 (ip), vehicle: saline 94 % of control

CC1CN1C1=C(F)C(=O)C(N2CC2C)=C(F)C1=O (centres undefined)
inactive: dose: 0.19 mg/kg/injection, schedule: Q01DX009 (ip), vehicle: Klucel (hydroxypropylcellulose) (HPC) 105 % of control | dose: 0.39 mg/kg/injection, schedule: Q01DX009 (ip), vehicle: Klucel (hydroxypropylcellulose) (HPC) 104 % of control | dose: 0.78 mg/kg/injection, schedule: Q01DX009 (ip), vehicle: Klucel (hydroxypropylcellulose) (HPC) 102 % of control | dose: 0.78 mg/kg/injection, schedule: Q04DX003 (ip), vehicle: Klucel (hydroxypropylcellulose) (HPC) 103 % of control | dose: 1.56 mg/kg/injection, schedule: Q01DX009 (ip), vehicle: Klucel (hydroxypropylcellulose) (HPC) 100 % of control | dose: 1.56 mg/kg/injection, schedule: Q04DX003 (ip), vehicle: Klucel (hydroxypropylcellulose) (HPC) 105 % of control | dose: 3.12 mg/kg/injection, schedule: Q01DX009 (ip), vehicle: Klucel (hydroxypropylcellulose) (HPC) 100 % of control | dose: 3.12 mg/kg/injection, schedule: Q04DX003 (ip), vehicle: Klucel (hydroxypropylcellulose) (HPC) 101 % of control | dose: 4.6 mg/kg/injection, schedule: Q01DX009 (ip), vehicle: Klucel (hydroxypropylcellulose) (HPC) 103 % of control

N#CC1C(=O)N=C(c2ccccc2)CC1c1ccccc1 (centres undefined)
inactive: dose: 100.0 mg/kg/injection, schedule: Q01DX001 (ip), vehicle: saline with Tween-80 86 % of control | dose: 200.0 mg/kg/injection, schedule: Q01DX001 (ip), vehicle: saline with Tween-80 96 % of control | dose: 400.0 mg/kg/injection, schedule: Q01DX001 (ip), vehicle: saline with Tween-80 104 % of control

CCOC(=O)CCOCOCCC(=O)OCC
inactive: dose: 100.0 mg/kg/injection, schedule: Q04DX003 (ip), vehicle: saline 106 % of control | dose: 200.0 mg/kg/injection, schedule: Q04DX003 (ip), vehicle: saline 110 % of control | dose: 400.0 mg/kg/injection, schedule: Q04DX003 (ip), vehicle: saline 95 % of control
